The text below walks through data of patent US9856273B2, “ETP derivatives” (priority 2012, dated 2018).

Series [1] can be described thus: Toxicity on intraperitoneal injection or oral administration. To be noted: up to 20 mg/kg, intraperitoneal injection (IP) or oral administration.
The test system of series [2] is A549 non-small cell lung cancer cells. Put plainly: MTS cell viability assay, alone and in combination with multi-kinase inhibitor. The class given is cell-based. To be noted: Homo sapiens. Here is the method: Cell Testing Assays with ETP Derivatives in Combination with DNMT Inhibitors and Multi-Kinase Inhibitors (See FIGS. 12A-12D, 13A-13C and 14A-14C): MTS assays were performed for cell viability for combination study with ETP69 plus DNMT inhibitors or mutikinase inhibitor. Human SKOV3 ovarian and A549 non-small cancer cells were seeded in 96-well plates (5000/well), incubated overnight at 37° C. in 5% CO2, and exposed to ETP69 plus azacitidine, decitabine or sorafenib for 48. Dimethyl sulfoxide (DMSO) was used as the vehicle control. Viable cell numbers were determined by tetrazolium conversion to its formazan dye and absorbance was measured at 490 nm using an automated ELISA plate reader. Each experiment was performed in quadruplicate.
IC50 Determinations for Ovarian, Liver, Pancreatic, CML, AML Cancer Cell Lines (See e.g. FIGS. 4, 6A-6C, 21, 22A, 22B, 23, 24A-24C, 25A, 25B and 34): MTS assays were performed for cell viability. […] Viable cell numbers were determined by tetrazolium conversion to its formazan dye and absorbance was measured at 490 nm using an automated ELISA plate reader. […]
In general terms: Formazan colour is commonly taken as a measure of viable cells.

The next series relates to p16 tumor suppressor. Kind of series: Western blot, induction of p16. The series is classed as cell-based, human. To be noted: DU145 prostate cancer cells and A2058 melanoma cells. Here is the method: (§1) Induction of p16, p53, p21waf1 and p27 (FIGS. 8 and 9): Western blot analyses were performed with specific antibodies. Briefly, human A2058 melanoma, DU145 prostate, A549 non-small lung and SKOV3 ovarian cancer cells were treated with ETP69. Whole-cell lysates (40 […]g) were resolved by SDS-PAGE. Primary specific antibodies to p53, p21^WAF1, p27(Kip1), p16 and Actin were diluted in PBS (pH 7.5) with 5% (w/v) nonfat milk and 0.1% (v/v) Tween-20 over night at 4° C. Horseradish peroxidase-conjugated secondary antibodies were incubated in PBS (pH 7.5) with 5% (w/v) nonfat milk and 0.1% (v/v) Tween-20 for 1 h at room temperature. Positive immuno-reactive proteins were detected using the ECL system (Pierce, Rockford, Ill.).
(In general: Immunoblotting shows a protein as a band on a membrane.)

In another series the test system is H3K9 trimethylation. Put plainly: Western blot of histone H3 (trimethyl K9) in A2058 melanoma cells. The series is classed as cell-based, human. Here is the method: as §1, with “Western” for “Induction of p16, p53, p21waf1 and p27 (FIGS. 8 and 9): Western”, “[…]g) or histone extracts (10 […]g)” for “[…]g)”, “histone H3” for “p53, p21^WAF1, p27(Kip1), p16”, “histone H3 (trimethyl K9) were incubated in PBS (pH 7.5) with 0.1% (v/v) Tween-20 and 5% (w/v) BSA with gentle agitation overnight at 4° C. Other specific antibodies” for “Actin”

The subject of series [3] is Cyclin-dependent kinase inhibitor 1B p27(Kip1). Put plainly: Western blot, induction of p27(Kip1). The class given is cell-based, human. The conditions noted are these: A2058, DU145, A549 and SKOV3 cells. Here is the method:
as §1

In series [4] the test system is A549 lung cancer SQ xenografts. The class given is in vivo, mouse. The conditions noted are these: A549 xenograft, 10 mg/kg orally once daily for 31 days. Here is the method:
Human A549 non-small lung cancer cells (5×10^6) were resuspended in serum-free DMEM medium and Matrigel (ration of 1:1) and subcutaneously injected into the flank of 5-6 weeks old female NOD/SCID/IL-2rg(ko)(NSG). When palpable tumor sizes reached at approximately 50 mm^3, mice were divided into two groups (vehicle=10, treatment=10). Then, ETP69 was orally administered at 10 mg/kg with vehicle (10% DMSO+30% Solutol+60% saline), once daily for 31 days. Tumor volumes were calculated by the formula 1/2a×b^2, where a is the long diameter, and b is the short diameter. Tumor volumes correlate with tumor weights. The statistical significance of group differences was analyzed using a Student's t-test with the two-tailed distribution. P values less than 0.05 were considered statistically significant.

Series [5] has as its system normal pancreatic epithelial cells. Put plainly: Viability of normal pancreatic epithelial cells. To be noted: 100 nM to 1000 nM.
For series [6], the system named is p21WAF1 cyclin-dependent kinase inhibitor 1. Kind of series: Western blot, induction of p21WAF1. The conditions noted are these: A2058, DU145, A549 and SKOV3 cells. The class given is cell-based, human. The procedure: as §1
Series [7] deals with HCC38 triple negative breast cancer cells. Kind of series: Cell viability assay. The series is classed as cell-based.
Series [8] concerns HCC1937 triple negative breast cancer cells. Kind of series: Cell viability assay. The series is classed as cell-based.
For series [9], the system named is MDA-MB-468 triple negative breast cancer cells. Put plainly: Cell viability assay. The series is classed as cell-based.
Series [10] relates to HepG2 hepatocellular carcinoma cells. Kind of series: MTS cell viability assay. The series is classed as cell-based. To be noted: Homo sapiens.
Series [11] concerns A2058 melanoma SQ xenografts. The series is classed as in vivo, mouse. To be noted: A2058 xenograft, 20 mg/kg IP once daily for 13 days. The procedure:
In Vivo Xenograft Procedures for Lung Cancer, Melanoma, and Ovarian Cancer (See FIGS. 15A, 15B, 16A, 16B, 17A, 17B, 18A and 18B): Human A2058 melanoma cells (3×10^6) were resuspended in serum-free RPMI1640 medium and subcutaneously injected into the flank of 5-6 weeks old Athymic female nude mouse (NCI). When palpable tumor sizes reached at approximately 100 mm^3, mice were divided into two groups (vehicle=5, treatment=5). Then, ETP69 was administered with intraperitoneal (IP) injection at 20 mg/kg with vehicle (10% DMSO+0.5% Teen 20+89.5% saline), once daily for 13 days. Tumor volumes were calculated by the formula 1/2a×b^2, where a is the long diameter, and b is the short diameter. Tumor volumes correlate with tumor weights. The statistical significance of group differences was analyzed using a Student's t-test with the two-tailed distribution. P values less than 0.05 were considered statistically significant.

Molecules are shown by their SMILES.

With `CN1C(=O)[C@@]23C[C@](C)(C#N)[C@H](c4ccc5c(c4)OCO5)N2C(=O)[C@]1(C)SS3` (racemic) [ETP69, Rac-(3S,6S,7S,8aS)-6-(Benzo[d][1,3]dioxol-5-yl)-2,3,7-trimethyl-1,4-dioxohexahydro-6H-3,8a-epidithiopyrrolo[1,2-a]pyrazine-7-carbonitrile], the toxicity entry in series [1] is recorded as “no significant toxicity”. Also, the IC50 (in general, the concentration that gives 50% inhibition) in [2] was 0.1 µM; in series [10], 0.0138 µM. The “induction of p16 tumor suppressor” value in the series with p16 tumor suppressor is given as “induces”. The “inhibition of H3K9 trimethylation” value in the series on H3K9 trimethylation is recorded as “inhibition”. Further, the “induction of p27(Kip1)” value in [3] is “induces”. Further, the toxicity symptoms result in series [4] and in series [11] was “no observable toxicity symptoms” throughout. Also, the tumor volume entry in [4] and in series [11] was “decreased” throughout. The tumor weight entry in series [4] and in [11] was “decreased” each time. Also, the “destruction of normal pancreatic cells” value in [5] is “little destruction”. Besides, the “induction of p21WAF1” value in series [6] is “induces”. Also, the viability inhibition result in series [7], in [8] and in [9] was “viability inhibition” each time.
